Converted amounts (≈) assume the structure as drawn. Where two headings read alike, the source gives them in different places.
Columns and labels:
Experiment in all cases: Antibacterial activity, pre-exposure
A. baumannii NCTC 13423 = format: cell-based, Acinetobacter baumannii; conditions: for Average inhibition %, biofilms viability / Average inhibition %, planktonic cells viability / inhibition at 10 µM / inhibition at 15 µM / inhibition at 25 µM / inhibition at 50 µM: A. baumannii NCTC 13423, pre-exposure, ± SD
Method in brief: (§1)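 Read-outs were turbidity and resazurin reduction for planktonic cells, and resazurin followed by crystal violet biomass (A595) for biofilms. Compounds were present from inoculation onward, with 18 h aerobic growth at 37 °C under shaking.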

S. aureus ATCC 12598 = format: cell-based, Staphylococcus aureus; conditions: for Average inhibition %, biofilms viability / Average inhibition %, planktonic cells viability / inhibition at 5 µM / inhibition at 10 µM / inhibition at 15 µM / inhibition at 25 µM: S. aureus ATCC 12598, pre-exposure, ± SD
Method in brief: as §1

P. aeruginosa ATCC 9027 = format: cell-based, Pseudomonas aeruginosa; conditions: P. aeruginosa ATCC 9027, pre-exposure, ± SD
Method in brief: as §1

MIC (A. baumannii NCTC 13423; Acinetobacter baumannii, NCTC13423, pre-exposure, Inactive = no activity up to 50 μM, > = some inhibition but no MIC reached, read-out: MIC A. baumannii NCTC 13423): 25 µM (≈ 7.69 µg/mL) | MIC (S. aureus ATCC 12598; Staphylococcus aureus, ATCC12598, pre-exposure, 18 h, read-out: MIC S. aureus ATCC 12598): 15 µM (≈ 4.61 µg/mL)
Compound: CCCCCCCCc1ccc(CCC(N)(CO)CO)cc1 [fingolimod, Fingolimod]
Average inhibition %, biofilms viability (A. baumannii NCTC 13423; 10 µM): 0.2 ± 0.5% | Average inhibition %, planktonic cells viability (A. baumannii NCTC 13423; 10 µM): 5.9 ± 4.9% | Average inhibition %, biofilms viability (A. baumannii NCTC 13423; 15 µM): 63.6 ± 31.5% | Average inhibition %, planktonic cells viability (A. baumannii NCTC 13423; 15 µM): 74.1 ± 38.2% | Average inhibition %, biofilms viability (A. baumannii NCTC 13423; 25 µM): 97.6 ± 2.3% | Average inhibition %, planktonic cells viability (A. baumannii NCTC 13423; 25 µM): 99.5 ± 0.3% | Average inhibition %, biofilms viability (A. baumannii NCTC 13423; 50 µM): 98.4 ± 1.1% | Average inhibition %, planktonic cells viability (A. baumannii NCTC 13423; 50 µM): 99.4 ± 0.4% | inhibition at 10 µM (A. baumannii NCTC 13423; Acinetobacter baumannii, NCTC13423, 10 µM, read-out: Average inhibition %, biofilms biomass): 1.9 ± 3.9% | inhibition at 10 µM (A. baumannii NCTC 13423; Acinetobacter baumannii, NCTC13423, 10 µM, read-out: Average inhibition %, planktonic cells turbidity): 0% | inhibition at 15 µM (A. baumannii NCTC 13423; Acinetobacter baumannii, NCTC13423, 15 µM, read-out: Average inhibition %, biofilms biomass): 44.1 ± 26.9% | inhibition at 15 µM (A. baumannii NCTC 13423; Acinetobacter baumannii, NCTC13423, 15 µM, read-out: Average inhibition %, planktonic cells turbidity): 71.1 ± 37.7% | inhibition at 25 µM (A. baumannii NCTC 13423; Acinetobacter baumannii, NCTC13423, 25 µM, read-out: Average inhibition %, biofilms biomass): 79.2 ± 13.4% | inhibition at 25 µM (A. baumannii NCTC 13423; Acinetobacter baumannii, NCTC13423, 25 µM, read-out: Average inhibition %, planktonic cells turbidity): 98.8 ± 2% | inhibition at 50 µM (A. baumannii NCTC 13423; Acinetobacter baumannii, NCTC13423, 50 µM, read-out: Average inhibition %, biofilms biomass): 84.8 ± 7.8% | inhibition at 50 µM (A. baumannii NCTC 13423; Acinetobacter baumannii, NCTC13423, 50 µM, read-out: Average inhibition %, planktonic cells turbidity): 98.5 ± 1.4% | Average inhibition %, biofilms viability (S. aureus ATCC 12598; 5 µM): 16.9 ± 2.9% | Average inhibition %, planktonic cells viability (S. aureus ATCC 12598; 5 µM): 2.9 ± 2.9% | Average inhibition %, biofilms viability (S. aureus ATCC 12598; 10 µM): 35.8 ± 17.9% | Average inhibition %, planktonic cells viability (S. aureus ATCC 12598; 10 µM): 34 ± 29.5% | Average inhibition %, biofilms viability (S. aureus ATCC 12598; 15 µM): 99.2 ± 0.5% | Average inhibition %, planktonic cells viability (S. aureus ATCC 12598; 15 µM): 99.7 ± 0% | Average inhibition %, biofilms viability (S. aureus ATCC 12598; 25 µM): 99.6 ± 0.3% | Average inhibition %, planktonic cells viability (S. aureus ATCC 12598; 25 µM): 99.7 ± 0% | inhibition at 5 µM (S. aureus ATCC 12598; Staphylococcus aureus, ATCC12598, 5 µM, read-out: Average inhibition %, biofilms biomass): 18.5 ± 17.7% | inhibition at 5 µM (S. aureus ATCC 12598; Staphylococcus aureus, ATCC12598, 5 µM, read-out: Average inhibition %, planktonic cells turbidity): 6.3 ± 8.7% | inhibition at 10 µM (S. aureus ATCC 12598; Staphylococcus aureus, ATCC12598, 10 µM, read-out: Average inhibition %, biofilms biomass): 43.2 ± 15.8% | inhibition at 10 µM (S. aureus ATCC 12598; Staphylococcus aureus, ATCC12598, 10 µM, read-out: Average inhibition %, planktonic cells turbidity): 21.5 ± 27.1% | inhibition at 15 µM (S. aureus ATCC 12598; Staphylococcus aureus, ATCC12598, 15 µM, read-out: Average inhibition %, biofilms biomass): 94.5 ± 1.1% | inhibition at 15 µM (S. aureus ATCC 12598; Staphylococcus aureus, ATCC12598, 15 µM, read-out: Average inhibition %, planktonic cells turbidity): 99.6 ± 0.1% | inhibition at 25 µM (S. aureus ATCC 12598; Staphylococcus aureus, ATCC12598, 25 µM, read-out: Average inhibition %, biofilms biomass): 95.2 ± 0.4% | inhibition at 25 µM (S. aureus ATCC 12598; Staphylococcus aureus, ATCC12598, 25 µM, read-out: Average inhibition %, planktonic cells turbidity): 99.2 ± 0.1% | Average inhibition %, biofilms viability (P. aeruginosa ATCC 9027; 50 µM): 12.4 ± 13.4% | Average inhibition %, planktonic cells viability (P. aeruginosa ATCC 9027; 50 µM): 43.9 ± 35.5% | Average inhibition %, biofilms viability (P. aeruginosa ATCC 9027; 100 µM): 36.5 ± 23.1% | Average inhibition %, planktonic cells viability (P. aeruginosa ATCC 9027; 100 µM): 92.5 ± 4.8% | Average inhibition %, biofilms viability (P. aeruginosa ATCC 9027; 150 µM): 42.4 ± 25.3% | Average inhibition %, planktonic cells viability (P. aeruginosa ATCC 9027; 150 µM): 94.2 ± 3.6% | Average inhibition %, biofilms viability (P. aeruginosa ATCC 9027; 200 µM): 47.5 ± 22.6% | Average inhibition %, planktonic cells viability (P. aeruginosa ATCC 9027; 200 µM): 95 ± 1.2%
